Data from patent publication US20220008298A1, “OLEOGELS IN UV ABSORBER COMPOSITIONS” (BASF SE, priority 2011, published 2022).

Legend:
[1] = interfacial tension of the oil to water; type: physicochemical
Text: (§1) The smaller the interfacial tension of the oil towards water, the more polar it is. This is in line with the values of Log Poctanol/water.

[2] = Log P octanol/water of the oil; type: physicochemical
Text: as §1

Q: Which results are given for CCCCC(CC)COC(=O)OCC(CC)CCCC (stereo not shown) [Diethylhexyl Carbonate]?
A: Interf. tension to water, γ [1]: 29.1 mN/m; Log Poctanol/water [2]: 6.8

Q: For CCCCOC(=O)CCCCC(=O)OCCCC [Dibutyl Adipate], which “Interf. tension to water, γ” value [1] is on record?
A: The value was 14.3 mN/m.

Q: And the “Log Poctanol/water” value [2]?
A: The value was 3.9.
